How the values were obtained:
Format in all cases: in vivo
Platelets = assay: Lookup table: marker validity (nadir) window, Platelets; conditions: days elapsed between current dose and marker; for Platelets LL: lower limit of nadir range; for Platelets UL: upper limit of nadir range
Excerpt: (§1) A lookup table has been constructed (see above example), in the form of a table, to represent the relationship of each trial Agent and its qualified Clinical Markers. This table includes information regarding the Maximum Dose and the Inverse Marker Applicability for each Agent. The gray cells on the Cycle Dose Modifier indicate these values.
(§2) The table also includes information regarding the nadir of applicability for each Agent—Marker combination. The range, in days and indicated as the Lower Limit and Upper limit, has been determined by calculating a percentage (20%) above and below the true nadir value when only a single value is known. Otherwise, the upper and lower nadir values are used. […] The values of Upper and Lower limits is shown as a property of the Association between Markers and Agents. The Relevancy of a Marker can be computed using the lookup table by comparing the number of days elapsed between the date of the application of the current dose and the date on which the Marker was taken to the upper and lower values for that Agent Marker Association. If the elapsed days are greater than or equal to the lower limit and less than or equal to the upper limit, then the calculations provided by the Cycle Dose Modifier are said to be relevant and thereby applicable as indicated in the yellow Marker Validity cell. The Relevancy of Cycle Dose Modifier Calculations for Agent 1 is based on the Validity of Marker for Agent 1 calculated by: =IF(and((($B13−B6)>=VLOOKUP(B$3,Validity!$A$3:$K$8,10)),((B$13−B6)<=VLOOKUP(B$3,Validity!$A$3:$K$8,11))),“valid”,“invalid”)

Hemoglobin (Hgb) = assay: Lookup table: marker validity (nadir) window, Hemoglobin (Hgb); conditions: days elapsed between current dose and marker; for Hemoglobin (Hgb) LL: lower limit of nadir range; for Hemoglobin (Hgb) UL: upper limit of nadir range
Excerpt: as §1, §2

Neutrophil Count (ANC) = assay: Lookup table: marker validity (nadir) window, Neutrophil Count (ANC); conditions: days elapsed between current dose and marker; for Neutrophil Count (ANC) LL: lower limit of nadir range; for Neutrophil Count (ANC) UL: upper limit of nadir range
Excerpt: as §1, §2

LDL [1] = assay: Non-Pharm Example 1: doublet Lipitor and aerobics, LDL marker
Excerpt: (§3) Efficacy/Toxicity Determinant Agent 2 (Gemzar) (ETD2) is a value determined by the prescriber. Set at an initial value of 1, this value is then adjusted based upon actual case scenarios with a full data set to adjust the value to identify the contribution to the toxicity or efficacy until the actual value is achieved. It can be used to modify dose based upon non-pharmacologic effects such as diet, exercise and activity as determined by the prescriber. A non-pharmacologic two-part combination therapy example could include a cholesterol lowering agent and exercise or cholesterol lowering agent and a restrictive diet. In place of dose the exercise value would be measured in ‘METS’ (Metabolic Equivalent of oxygen consumption) or the dietary prescription in calories or grams of fat or cholesterol.
Doublet Agent One: Pharmacologic, Agent Two:Non-Pharmacologic (Exercise)

LDL [2] = assay: Non-Pharm Example 2: triplet Lipitor, aerobics and diet, LDL marker
Excerpt: as §3, with “Set” for “Efficacy/Toxicity Determinant Agent 2 (Gemzar) (ETD2) is a value determined by the prescriber. Set”, “three-part” for “two-part”, “agent,” for “agent and”, “exercise” for “exercise or cholesterol lowering agent”, “of” for “of fat or”
Triplet, Agent One: Pharmacologic, Agent Two: Non-Pharmacologic (Exercise), Agent Three: Diet (Grams of Cholesterol)

INR = assay: Single agent cycle dose modifier, warfarin sodium patient example; conditions: for Current Level of Efficacy/CLTE: current cycle total dose 57, dose Oct. 21, marker Oct. 26, 2004; for Previous Level of Efficacy/PLTE: previous cycle total dose 60, seven-day cycle
Excerpt: Warfarin Sodium (coumadin) is used in this example as a single agent. Table 1 illustrates a method of revising a drug dose in treating a patient with one pharamcologic […] modality to optimize pharmacologic outcome and to reduce the risk of an adverse drug event while assessing the clinical relevancy and validity of the measured surrogate marker.
In Table 1, Previous Cycle Total Dose (PCTD) is a value directly entered without new calculation. It is the cumulative amount of the agent administered during the previous treatment cycle as defined by the total amount of drug given over a fixed period of time, such as in chemotherapy, the total amount, e.g., mg/m^2, administered throughout the defined regimen period. In this single agent therapy example for chronic disease management, that is, prevention of venous thrombosis with warfarin sodium, the cycle becomes the total amount of warfarin sodium, in milligrams, administered over a seven-day period. The period is determined when the modifier is constructed.
Previous Level of Toxicity-Efficacy (PLTE) is a value directly entered such as from a lab report. It is the numerical value of a marker of toxicity or efficacy reported at the previous dose cycle adjustment (evaluated at a specified elapsed time sufficient to capture the nadir of the dose effect). The surrogate marker is selected when the dose modifier is constructed.
Current Level of Toxicity-Efficacy (CLTE) is also a value directly entered such as from a lab report. It is the numerical value of the marker of toxicity or efficacy reported with the current dose cycle. The surrogate marker is that value that illustrates the expression of the toxicity or efficacy of the agent on a specific and pre-selected value determined when the dose modifier is constructed. The value is selected based upon the agent, its pharmacologic properties and the disease condition under treatment. The confidence or validity of the marker is based upon its maturity of effect in that a nadir or cycle of effect is dynamic and may vary based upon the time span between receipt of the agent and sampling of the value. Therefore the value may be valid or invalid based upon this timing factor. If invalid, then the dose adjustment cannot be made. If valid, then the value is fully appreciated and the dose modification can be calculated. The surrogate marker is selected when the dose modifier is constructed.
Expected Current Level (ECL) is a comparative operator used to illustrate the mathematical expectation of the patient's response to the actual patient response to classify their individual response characteristics. […]

SMILES	Platelets LL (Platelets) [days]	Platelets UL (Platelets) [days]	Hemoglobin (Hgb) LL (Hemoglobin (Hgb)) [days]	Hemoglobin (Hgb) UL (Hemoglobin (Hgb)) [days]	Neutrophil Count (ANC) LL (Neutrophil Count (ANC)) [days]	Neutrophil Count (ANC) UL (Neutrophil Count (ANC)) [days]	Current Level of Efficacy/CLTEM1 (LDL [1]; current cycle Lipitor 280 with aerobics 168/week, marker Dec. 05, 2004)	Previous Level of Efficacy/PLTEM1 (LDL [1]; previous cycle Lipitor 210 with aerobics 140/week)	Current Level of Efficacy CLTEM1 (LDL [2]; current cycle Lipitor 300.00 with aerobics 168/week and diet 182/week, marker Dec. 05, 2004)	Previous Level of/PLTEM1 (LDL [2]; previous cycle Lipitor 220.00 with aerobics 140/week and diet 210/week)	Current Level of Efficacy/CLTE (INR; Comparison Cycle column)	Previous Level of Efficacy/PLTE (INR; Comparison Cycle column)	Current Level of Efficacy/CLTE (INR; Current Cycle column)	Previous Level of Efficacy/PLTE (INR; Current Cycle column)
N.N.O=C([O-])C1(C(=O)[O-])CCC1.[Pt+2] [Carboplatin]	17	25	14	21	17	25	–	–	–	–	–	–	–	–
N.N.[Cl][Pt][Cl] [Cisplatin]	18	23	18	23	18	23	–	–	–	–	–	–	–	–
Nc1ccn([C@@H]2O[C@H](CO)[C@@H](O)C2(F)F)c(=O)n1 [Gemzar]	7	10	7	10	7	10	–	–	–	–	–	–	–	–
CC(C)c1c(C(=O)Nc2ccccc2)c(-c2ccccc2)c(-c2ccc(F)cc2)n1CC[C@@H](O)C[C@@H](O)CC(=O)O [Lipitor]	–	–	–	–	–	–	120	150	122	140	–	–	–	–
CC(=O)O[C@@]12CO[C@@H]1C[C@H](O)[C@@]1(C)C(=O)[C@H](O)C3=C(C)[C@@H](OC(=O)[C@H](O)[C@@H](NC(=O)OC(C)(C)C)c4ccccc4)C[C@@](O)([C@@H](OC(=O)c4ccccc4)[C@H]21)C3(C)C [Taxotere]	6	8	8	11	6	8	–	–	–	–	–	–	–	–
CC(=O)CC(c1ccccc1)c1c(O)c2ccccc2oc1=O (centres unmarked) [Warfarin Sodium]	–	–	–	–	–	–	–	–	–	–	3.80	4.50	3.80	4.50

Source: patent US20050154537A1, “Methods, program products, and systems for single and multi-agent dosing and other related methods” (priority 2003, published 2005)
